Laboratory results published in PubChem BioAssay (NCI).
Where “and” joins values, the source holds several entries; their conditions need not be identical. Equal values may be shown once.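 Briefly, cells in 96-well plates were exposed to five compound concentrations for 48 h, and endpoints were estimated by linear interpolation. At the GI50, growth is halved. TGI denotes the concentration required for complete inhibition of growth.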

Assays:
Assay in all cases: NCI tumour cell line growth inhibition, 48 h
ACHN renal = test system: ACHN renal
NCI-H226 lung = test system: NCI-H226 lung
SF-295 CNS = test system: SF-295 CNS
SK-OV-3 ovarian = test system: SK-OV-3 ovarian
MDA-MB-435 = test system: MDA-MB-435
OVCAR-5 ovarian = test system: OVCAR-5 ovarian
SF-539 CNS = test system: SF-539 CNS
HCT-116 colon = test system: HCT-116 colon
KM12 colon = test system: KM12 colon
MCF7 breast = test system: MCF7 breast
RXF 393 renal = test system: RXF 393 renal
SF-268 CNS = test system: SF-268 CNS
OVCAR-4 ovarian = test system: OVCAR-4 ovarian
UACC-62 melanoma = test system: UACC-62 melanoma
M14 melanoma = test system: M14 melanoma
BT-549 breast = test system: BT-549 breast
U251 CNS = test system: U251 CNS
T-47D breast = test system: T-47D breast
HL-60(TB) leukemia = test system: HL-60(TB) leukemia
PC-3 prostate = test system: PC-3 prostate
MALME-3M melanoma = test system: MALME-3M melanoma
HOP-62 NSCLC = test system: HOP-62 NSCLC
SW-620 colon = test system: SW-620 colon
SR leukemia = test system: SR leukemia
A498 renal = test system: A498 renal
MOLT-4 leukemia = test system: MOLT-4 leukemia
MDA-MB-231 breast = test system: MDA-MB-231 breast
CAKI-1 renal = test system: CAKI-1 renal
SK-MEL-28 melanoma = test system: SK-MEL-28 melanoma
EKVX NSCLC = test system: EKVX NSCLC
SK-MEL-5 melanoma = test system: SK-MEL-5 melanoma
UACC-257 melanoma = test system: UACC-257 melanoma
A549 NSCLC = test system: A549 NSCLC
OVCAR-8 ovarian = test system: OVCAR-8 ovarian
SNB-19 CNS = test system: SNB-19 CNS
DU-145 prostate = test system: DU-145 prostate
HCC-2998 colon = test system: HCC-2998 colon
OVCAR-3 ovarian = test system: OVCAR-3 ovarian
LOX IMVI melanoma = test system: LOX IMVI melanoma
UO-31 renal = test system: UO-31 renal
TK-10 renal = test system: TK-10 renal
NCI-H522 lung = test system: NCI-H522 lung
SNB-75 CNS = test system: SNB-75 CNS
CCRF-CEM leukemia = test system: CCRF-CEM leukemia
COLO 205 colon = test system: COLO 205 colon
786-0 renal = test system: 786-0 renal
NCI/ADR-RES ovarian = test system: NCI/ADR-RES ovarian
HCT-15 colon = test system: HCT-15 colon
RPMI-8226 leukemia = test system: RPMI-8226 leukemia
NCI-H460 lung = test system: NCI-H460 lung
IGROV1 ovarian = test system: IGROV1 ovarian
HS 578T breast = test system: HS 578T breast
SN12C renal = test system: SN12C renal
K-562 leukemia = test system: K-562 leukemia
NCI-H23 lung = test system: NCI-H23 lung
SK-MEL-2 melanoma = test system: SK-MEL-2 melanoma
HOP-92 NSCLC = test system: HOP-92 NSCLC
HT29 colon = test system: HT29 colon

SMILES: C[C@H](NC(=O)c1c(N)nn2cccnc12)c1cc2cccc(C#Cc3cnn(C)c3)c2c(=O)n1-c1ccccc1
- GI50 (ACHN renal): 3.39 µM and 2.92 µM
- TGI (ACHN renal): > 10 µM and 18.8 µM
- GI50 (NCI-H226 lung): > 10 µM and 11.8 µM
- TGI (NCI-H226 lung): > 10 µM and 32.8 µM
- GI50 (SF-295 CNS): 2.52 µM and 2.47 µM
- TGI (SF-295 CNS): > 10 µM and 15.6 µM
- GI50 (SK-OV-3 ovarian): 2.89 µM and 2.13 µM
- TGI (SK-OV-3 ovarian): > 10 µM and 15.5 µM
- GI50 (MDA-MB-435): 5.87 µM and 5.57 µM
- TGI (MDA-MB-435): > 10 µM and 60.8 µM
- GI50 (OVCAR-5 ovarian): 8.65 µM and 6.17 µM
- TGI (OVCAR-5 ovarian): > 10 µM and 28.7 µM
- GI50 (SF-539 CNS): 3.33 µM and 3.36 µM
- TGI (SF-539 CNS): > 10 µM and 16.4 µM
- GI50 (HCT-116 colon): 2.61 µM and 6.65 µM
- TGI (HCT-116 colon): > 10 µM and 33.9 µM
- GI50 (KM12 colon): 5.98 µM and 9.53 µM
- TGI (KM12 colon): > 10 µM and 61.4 µM
- GI50 (MCF7 breast): 1.1 µM and 1.01 µM
- TGI (MCF7 breast): > 10 µM and 87.7 µM
- GI50 (RXF 393 renal): 2.02 µM and 1.58 µM
- TGI (RXF 393 renal): > 10 µM and 9.57 µM
- GI50 (SF-268 CNS): > 10 µM and 10.1 µM
- TGI (SF-268 CNS): > 10 µM and 72.2 µM
- GI50 (OVCAR-4 ovarian): 8.72 µM and 13.3 µM
- TGI (OVCAR-4 ovarian): > 10 µM and 68.4 µM
- GI50 (UACC-62 melanoma): 0.682 µM and 1.38 µM
- TGI (UACC-62 melanoma): > 10 µM and 23.2 µM
- GI50 (M14 melanoma): > 10 µM and 11.8 µM
- TGI (M14 melanoma): > 10 µM and 30.9 µM
- GI50 (BT-549 breast): 1.6 µM and 1.42 µM
- TGI (BT-549 breast): > 10 µM and 15.2 µM
- GI50 (U251 CNS): 7.5 µM and 8.22 µM
- TGI (U251 CNS): > 10 µM and 48.5 µM
- GI50 (T-47D breast): 0.211 µM and 0.224 µM
- TGI (T-47D breast): 1.91 µM and 3.88 µM
- GI50 (HL-60(TB) leukemia): 0.774 µM and 0.813 µM
- TGI (HL-60(TB) leukemia): > 10 µM and 9.86 µM
- GI50 (PC-3 prostate): 1.6 µM and 1.98 µM
- TGI (PC-3 prostate): > 100 µM
- TGI (MALME-3M melanoma): > 10 µM and 20 µM
- GI50 (HOP-62 NSCLC): 8.58 µM
- TGI (HOP-62 NSCLC): > 10 µM
- GI50 (SW-620 colon): 3.14 µM and 11.9 µM
- TGI (SW-620 colon): > 10 µM and 61 µM
- GI50 (SR leukemia): 3.59 µM and 2.4 µM
- TGI (SR leukemia): > 100 µM
- GI50 (A498 renal): 1.17 µM and 0.241 µM
- TGI (A498 renal): 8.24 µM and 1.79 µM
- GI50 (MOLT-4 leukemia): 2.17 µM and 1.96 µM
- TGI (MOLT-4 leukemia): > 10 µM and 6.55 µM
- GI50 (MDA-MB-231 breast): 5.98 µM and 12.3 µM
- TGI (MDA-MB-231 breast): > 10 µM and 54.1 µM
- GI50 (CAKI-1 renal): 3.81 µM
- TGI (CAKI-1 renal): > 10 µM
- GI50 (SK-MEL-28 melanoma): 3.08 µM and 3.9 µM
- TGI (SK-MEL-28 melanoma): > 10 µM and 38.6 µM
- GI50 (EKVX NSCLC): 9.84 µM and 4.67 µM
- TGI (EKVX NSCLC): > 100 µM
- GI50 (SK-MEL-5 melanoma): 4.54 µM and 12.3 µM
- TGI (SK-MEL-5 melanoma): > 10 µM and 29.1 µM
- GI50 (UACC-257 melanoma): > 10 µM and 9.9 µM
- TGI (UACC-257 melanoma): > 10 µM and 39.2 µM
- GI50 (A549 NSCLC): 8.92 µM and 4.98 µM
- TGI (A549 NSCLC): > 10 µM and 30.2 µM
- GI50 (OVCAR-8 ovarian): > 10 µM and 12.6 µM
- TGI (OVCAR-8 ovarian): > 100 µM
- GI50 (SNB-19 CNS): 6.27 µM and 10.4 µM
- TGI (SNB-19 CNS): > 100 µM
- GI50 (DU-145 prostate): 8.71 µM and 7.69 µM
- TGI (DU-145 prostate): > 100 µM
- GI50 (HCC-2998 colon): > 10 µM and 4.94 µM
- TGI (HCC-2998 colon): > 10 µM and 19.9 µM
- GI50 (OVCAR-3 ovarian): 4.27 µM and 4.6 µM
- TGI (OVCAR-3 ovarian): > 10 µM and 27.1 µM
- GI50 (LOX IMVI melanoma): 3.44 µM
- TGI (LOX IMVI melanoma): > 10 µM and 40 µM
- GI50 (UO-31 renal): 0.666 µM and 0.981 µM
- TGI (UO-31 renal): > 10 µM and 13.8 µM
- GI50 (TK-10 renal): 2.07 µM and 1.38 µM
- TGI (TK-10 renal): > 10 µM and 12.1 µM
- GI50 (NCI-H522 lung): 5.27 µM and 10.5 µM
- TGI (NCI-H522 lung): > 10 µM and 54.8 µM
- GI50 (SNB-75 CNS): 0.679 µM and 0.531 µM
- TGI (SNB-75 CNS): > 10 µM and 10.5 µM
- GI50 (CCRF-CEM leukemia): 0.588 µM and 0.357 µM
- TGI (CCRF-CEM leukemia): > 100 µM
- GI50 (COLO 205 colon): 4.41 µM and 1.8 µM
- TGI (COLO 205 colon): > 10 µM and 5.23 µM
- GI50 (786-0 renal): 3.97 µM and 3.56 µM
- TGI (786-0 renal): > 10 µM and 16.9 µM
- GI50 (NCI/ADR-RES ovarian): 6.28 µM and 4.55 µM
- TGI (NCI/ADR-RES ovarian): > 10 µM and 56 µM
- GI50 (HCT-15 colon): 2.69 µM and 4.68 µM
- TGI (HCT-15 colon): > 10 µM and 26.4 µM
- GI50 (RPMI-8226 leukemia): 3.23 µM and 3.84 µM
- TGI (RPMI-8226 leukemia): > 10 µM and 31.4 µM
- GI50 (NCI-H460 lung): 3.8 µM and 5.2 µM
- TGI (NCI-H460 lung): > 10 µM and 23.9 µM
- GI50 (IGROV1 ovarian): 0.439 µM and 0.722 µM
- TGI (IGROV1 ovarian): 2.89 µM and 5.47 µM
- GI50 (HS 578T breast): 1.83 µM and 1.26 µM
- TGI (HS 578T breast): > 10 µM and 46.3 µM
- GI50 (SN12C renal): 4.09 µM and 6.47 µM
- TGI (SN12C renal): > 10 µM and 43.4 µM
- GI50 (K-562 leukemia): > 10 µM and 10.4 µM
- TGI (K-562 leukemia): > 100 µM
- GI50 (NCI-H23 lung): 4.99 µM and 11 µM
- TGI (NCI-H23 lung): > 10 µM and 24.7 µM
- GI50 (SK-MEL-2 melanoma): > 10 µM and 6.61 µM
- TGI (SK-MEL-2 melanoma): > 10 µM and 41.1 µM
- GI50 (HOP-92 NSCLC): 0.524 µM and 1.41 µM
- TGI (HOP-92 NSCLC): 7.35 µM and 20.4 µM
- GI50 (HT29 colon): 2.31 µM and 4 µM
- TGI (HT29 colon): > 10 µM and 43.3 µM
